In patent US10385113B2, “Engineered FGF compositions and methods of use thereof” (THE BOARD OF TRUSTEES OF THE UNIVERSITY OF ARKANSAS, priority 2016, dated 2019):

Columns and labels:
[1] = target: T1, human FGF-1 (hFGF-1), wild type (wtFGF-1), SEQ ID NO: 2 (Homo sapiens, UniProt P05230); experiment: Isothermal titration calorimetry (ITC) of wild-type FGF-1 with SOS; format: binding; settings: FIG. 10A
T1 construct: made in house
Method: (§1) For WT hFGF-1, and mutant proteins were in the cell and at a concentration of 0.05 mM in a buffer of 10 mM phosphate, 100 mM NaCl, 50 mM ammonium sulfate, pH 6.5. […] The data was analyzed using Origin scientific plotting software.
(§2) ITC is a method used to directly evaluate the affinity and enthalpy of binding reactions.

[2] = target: T2, human FGF-1 (hFGF-1) mutant R136E, SEQ ID NO: 4 (Homo sapiens, UniProt P05230, R137E); experiment: Isothermal titration calorimetry (ITC) of FGF-1 mutant R136E with SOS; format: binding; settings: 10 mM phosphate, 100 mM NaCl, 50 mM ammonium sulfate, pH 6.5, 25° C., FIG. 10C, read-out: dissociation constant (Kd)
T2 construct: made in house
Method: as §1, §2

T1 sequence (P05230 16-155): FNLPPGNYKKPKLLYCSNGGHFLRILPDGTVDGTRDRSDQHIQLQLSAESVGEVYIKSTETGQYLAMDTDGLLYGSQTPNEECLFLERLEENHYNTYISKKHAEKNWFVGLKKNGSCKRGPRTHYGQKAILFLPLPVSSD
T2 sequence (P05230 16-155 R137E): as the sequence (P05230 16-155) above, with R122E counted along it

Kd ([1]; 10 mM phosphate, 100 mM NaCl, 50 mM ammonium sulfate, pH 6.5, 25° C., read-out: dissociation constant (Kd)): 2.6 µM
affinity to SOS (binding isotherm) ([1]; compared with R136E, result in words): strong affinity
Kd [2]: 72.4 µM
SMILES: O=S(=O)(O)OC[C@H]1O[C@@](COS(=O)(=O)O)(O[C@H]2O[C@H](COS(=O)(=O)O)[C@@H](OS(=O)(=O)O)[C@H](OS(=O)(=O)O)[C@H]2OS(=O)(=O)O)[C@@H](OS(=O)(=O)O)[C@@H]1OS(=O)(=O)O [SOS, sucrose octasulfate]
